{
  "source": "patent EP0392666A2",
  "about": "“Anti-HIV compositions” (JOHNSON MATTHEY PUBLIC LIMITED COMPANY, priority 1989, dated 1990)",
  "key": {"HIV-1 (HTLV-IIIB)": {"test_system": "HIV-1 (HTLV-IIIB)", "test": "microbe, parasite or virus in culture", "assay_type": "cell-based", "settings": "for EC50: Human immunodeficiency virus 1, MT4, 120 h, read-out: ED₅₀; for SI: Selectivity Index, ratio of CD₅₀ to ED₅₀, HIV-1, 7200 min", "procedure": "(§1) The compounds of the invention were tested in a screen by the MTT method (J. Virol. Methods 120: 309-321 [1988]). MT-4 cells (2.5 x 10⁴ /well) were infected with HIV-1 (HTLV-IIIB) or HIV-2 (LAV-2 ROD) at a concentration of 100 CCID₅₀ and incubated in the presence of various concentrations of the test compounds, which were added immediately after infection with the virus. After 5 days culture at 37°C in a CO₂ incubator, the number of viable cells was assessed by the MTT (tetrazolium) method. […] The potential therapeutic usefulness was assessed by calculating a Selectivity Index (SI) corresponding to the ratio of CD₅₀ to ED₅₀. A control test was performed using the known anti-HIV treatment AZT."}, "[1]": {"test": "Cytotoxicity by MTT method in MT-4 cells", "assay_type": "cell-based, human", "settings": "human, mt-4 cells, read-out: CD₅₀", "procedure": "as §1"}, "HIV-2 (LAV-2 ROD)": {"test_system": "HIV-2 (LAV-2 ROD)", "test": "MTT method anti-HIV screen in MT-4 cells infected with HIV-2", "assay_type": "cell-based", "settings": "for EC50: Human immunodeficiency virus 2, MT4, 120 h, read-out: ED₅₀; for EC50 / ED₅₀: antiviral activity, MT-4 cells infected with HIV-2 (LAV-2 ROD) at 100 CCID₅₀, 5 days; for SI: Selectivity Index, ratio of CD₅₀ to ED₅₀, HIV-2, 7200 min", "procedure": "as §1"}, "MT-4 cells": {"test_system": "MT-4 cells", "test": "Cytotoxicity by MTT method in MT-4 cells", "assay_type": "cell-based, human", "procedure": "as §1"}, "[2]": {"settings": "antiviral activity, MT-4 cells infected with HIV-1 (HTLV-IIIB) at 100 CCID₅₀, 5 days"}},
  "note": "Read-outs that look alike come from different tables or passages of the source.",
  "data": [
    {"molecule": "Cc1cn([C@H]2C[C@H](N=[N+]=[N-])[C@@H](CO)O2)c(=O)[nH]c1=O", "note": "[AZT, reference compound]", "values": [
      {"measurement": "EC50", "setting": "HIV-1 (HTLV-IIIB)", "result": "< 0.008", "unit": "µg/mL"},
      {"measurement": "SI", "setting": "HIV-1 (HTLV-IIIB)", "result": ">125"},
      {"measurement": "CC50 at 120 h", "setting": "[1]; HIV-1, 5 days culture at 37°C", "result": "> 1", "unit": "µg/mL"}
    ]},
    {"molecule": "C1CNCCCNCCNCCCNC1", "note": "[B, 1,4,8,12-tetrazacyclopentadecane]", "values": [
      {"measurement": "EC50", "setting": "HIV-1 (HTLV-IIIB); [2]", "result": 30.3, "unit": "µg/mL"},
      {"measurement": "SI", "setting": "HIV-1 (HTLV-IIIB)", "result": 15},
      {"measurement": "EC50", "setting": "HIV-2 (LAV-2 ROD)", "result": 40.4, "unit": "µg/mL"},
      {"measurement": "SI", "setting": "HIV-2 (LAV-2 ROD)", "result": 12},
      {"measurement": "CC50 at 120 h", "setting": "[1]; HIV-1, 5 days culture at 37°C", "result": 460, "unit": "µg/mL"},
      {"measurement": "CC50 at 120 h", "setting": "[1]; HIV-2, 5 days culture at 37°C", "result": 487, "unit": "µg/mL"}
    ]},
    {"molecule": "C1CCNCCCNCCNCCCNC1", "note": "[C, 1,4,8,13-tetrazacyclohexadecane. 4HCl]", "values": [
      {"measurement": "EC50", "setting": "HIV-1 (HTLV-IIIB); [2]", "result": 18.8, "unit": "µg/mL"},
      {"measurement": "SI", "setting": "HIV-1 (HTLV-IIIB)", "result": 18},
      {"measurement": "EC50", "setting": "HIV-2 (LAV-2 ROD)", "result": "> 500", "unit": "µg/mL"},
      {"measurement": "SI", "setting": "HIV-2 (LAV-2 ROD)", "result": "<1"},
      {"measurement": "CC50 at 120 h", "setting": "[1]; HIV-1, 5 days culture at 37°C", "result": 334, "unit": "µg/mL"},
      {"measurement": "CC50 at 120 h", "setting": "[1]; HIV-2, 5 days culture at 37°C", "result": 341, "unit": "µg/mL"}
    ]},
    {"molecule": "C1CNCCCNCCCNCCCNC1", "note": "[D, 1,5,9,13-tetrazacyclohexadecane]", "values": [
      {"measurement": "EC50", "setting": "HIV-1 (HTLV-IIIB); [2]", "result": 0.3, "unit": "µg/mL"},
      {"measurement": "SI", "setting": "HIV-1 (HTLV-IIIB)", "result": 37},
      {"measurement": "EC50", "setting": "HIV-2 (LAV-2 ROD)", "result": "> 40", "unit": "µg/mL"},
      {"measurement": "SI", "setting": "HIV-2 (LAV-2 ROD)", "result": "<1"},
      {"measurement": "CC50 at 120 h", "setting": "[1]; HIV-1, 5 days culture at 37°C", "result": 11.2, "unit": "µg/mL"},
      {"measurement": "CC50 at 120 h", "setting": "[1]; HIV-2, 5 days culture at 37°C", "result": 20.5, "unit": "µg/mL"}
    ]},
    {"molecule": "C1CCNCCCNCCCNCCCNC1", "note": "[E, 1,5,9,14-tetrazacycloheptadecane]", "values": [
      {"measurement": "EC50", "setting": "HIV-1 (HTLV-IIIB); [2]", "result": 1.3, "unit": "µg/mL"},
      {"measurement": "SI", "setting": "HIV-1 (HTLV-IIIB)", "result": 3},
      {"measurement": "EC50", "setting": "HIV-2 (LAV-2 ROD)", "result": "> 8", "unit": "µg/mL"},
      {"measurement": "SI", "setting": "HIV-2 (LAV-2 ROD)", "result": "<1"},
      {"measurement": "CC50 at 120 h", "setting": "[1]; HIV-1, 5 days culture at 37°C", "result": 3.35, "unit": "µg/mL"},
      {"measurement": "CC50 at 120 h", "setting": "[1]; HIV-2, 5 days culture at 37°C", "result": 5.06, "unit": "µg/mL"}
    ]},
    {"molecule": "C1CNCCNCCNCCNCCN1", "note": "[F, 1,4,7,10,13-pentazacyclopentadecane]", "values": [
      {"measurement": "EC50", "setting": "HIV-1 (HTLV-IIIB); [2]", "result": "> 8", "unit": "µg/mL"},
      {"measurement": "SI", "setting": "HIV-1 (HTLV-IIIB)", "result": "<1"},
      {"measurement": "EC50", "setting": "HIV-2 (LAV-2 ROD)", "result": "> 8", "unit": "µg/mL"},
      {"measurement": "SI", "setting": "HIV-2 (LAV-2 ROD)", "result": "<1"},
      {"measurement": "CC50 at 120 h", "setting": "[1]; HIV-1, 5 days culture at 37°C", "result": 3.36, "unit": "µg/mL"},
      {"measurement": "CC50 at 120 h", "setting": "[1]; HIV-2, 5 days culture at 37°C", "result": 6.03, "unit": "µg/mL"}
    ]},
    {"molecule": "CC1CC(C)(C)NCCNC(C)CC(C)(C)NCCN1", "note": "(stereo not shown) [I, 5,5,7,12,12,14-hexamethyl-cyclam]", "values": [
      {"measurement": "EC50", "setting": "HIV-1 (HTLV-IIIB); [2]", "result": 197, "unit": "µg/mL"},
      {"measurement": "SI", "setting": "HIV-1 (HTLV-IIIB)", "result": 2},
      {"measurement": "EC50", "setting": "HIV-2 (LAV-2 ROD)", "result": "> 1000", "unit": "µg/mL"},
      {"measurement": "SI", "setting": "HIV-2 (LAV-2 ROD)", "result": "<1"},
      {"measurement": "CC50 at 120 h", "setting": "[1]; HIV-1, 5 days culture at 37°C", "result": 432, "unit": "µg/mL"},
      {"measurement": "CC50 at 120 h", "setting": "[1]; HIV-2, 5 days culture at 37°C", "result": 419, "unit": "µg/mL"}
    ]},
    {"molecule": "Zn complex of 1,4,8,12-tetrazacyclopentadecane (Cl⁻) [G]", "values": [
      {"measurement": "ED₅₀", "setting": "HIV-1 (HTLV-IIIB); [2]", "result": 6.96, "unit": "µg/mL"},
      {"measurement": "ED₅₀", "setting": "HIV-2 (LAV-2 ROD)", "result": ">1000.0", "unit": "µg/mL"},
      {"measurement": "CD₅₀", "setting": "MT-4 cells; HIV-1, 5 days culture at 37°C", "result": 194.2, "unit": "µg/mL"},
      {"measurement": "CD₅₀", "setting": "MT-4 cells; HIV-2, 5 days culture at 37°C", "result": 218.3, "unit": "µg/mL"}
    ]},
    {"molecule": "Zn complex of 1,5,9,13-tetrazacyclohexaadecane (Cl⁻) [Compound H]", "values": [
      {"measurement": "ED₅₀", "setting": "HIV-1 (HTLV-IIIB); [2]", "result": 10.6, "unit": "µg/mL"},
      {"measurement": "ED₅₀", "setting": "HIV-2 (LAV-2 ROD)", "result": ">100.0", "unit": "µg/mL"},
      {"measurement": "CD₅₀", "setting": "MT-4 cells; HIV-1, 5 days culture at 37°C", "result": 46.9, "unit": "µg/mL"},
      {"measurement": "CD₅₀", "setting": "MT-4 cells; HIV-2, 5 days culture at 37°C", "result": 46.9, "unit": "µg/mL"}
    ]},
    {"molecule": "[Cu cyclam]Cl₂ [X, reference compound]", "values": [
      {"measurement": "ED₅₀", "setting": "HIV-1 (HTLV-IIIB); [2]", "result": ">250", "unit": "µg/mL"}
    ]},
    {"molecule": "c-[Rh cyclam (NO₂)₂]Cl [reference compound]", "values": [
      {"measurement": "ED₅₀", "setting": "HIV-1 (HTLV-IIIB); [2]", "result": ">250", "unit": "µg/mL"}
    ]}
  ]
}
